{"source": "patent US20210386111A1", "about": "“AEROSOLISABLE FORMULATION” (NICOVENTURES TRADING LIMITED, priority 2018, published 2021)", "origin": "cited, not measured here", "data": [{"substance": "2-hydroxy-propyl-β-cyclodextrin", "values": [{"measurement": "solubility in water compared to base cyclodextrins such as β-cyclodextrin", "result": "increased solubility in water"}]}]}
